{"source": "patent US9593146B2", "about": "“CD44v6-derived peptides for treating metastasizing cancer” (AMCURE GMBH, priority 2012, dated 2017)", "key": {"VEGFR-2": {"tested_on": "VEGFR-2", "test": "VEGF-A165 induced activation of VEGFR-2 and Erk in endothelial cells", "format": "cell-based, human", "conditions": "HUVEC, HAOEC and HCMEC", "protocol": "FIG. 13: Activation of VEGFR-2 and signal transduction induced by VEGF-A165 depends on CD44v6. Different ECs (HUVEC, HAOEC and HCMEC) were serum starved and incubated with several reagents (αCD44v6, v6 14mer and the controls IgG and ctrl pep). The cells were then induced with VEGF-A165 and lysed. The cell lysates were loaded on SDS-PAGE and subjected to Western blot analysis. Activation of the receptor tyrosine kinase VEGFR-2 and of its downstream target Erk was detected by means of antibodies that detect phosphorylated forms of VEGFR-2 and Erk. The loading control was performed with antibodies recognising total VEGFR-2 and Erk levels. The numbers indicate the fold induction as calculated with the computer programme ImageJ.\nIn order investigate if an isoform of CD44 is necessary for VEGFR-2 activation, the three tools inhibiting CD44v6 activity were used in an experiment where VEGFR-2 was activated by VEGF-A165. As expected all ECs responded to VEGF-A165 treatment with VEGFR-2 phosphorylation and signal transduction to Erk. […] Thus CD44v6 is also necessary for a functional VEGF-A165/VEGFR-2 system in these cells."}, "HUVEC": {"tested_on": "HUVEC", "test": "Angiogenic response of HUVECs to angiogenic Langerhans islets", "format": "cell-based, human", "conditions": "HUVEC/collagen co-culture with islets, 5 to 7 days", "protocol": "FIG. 20: The response of HUVECs to a mixture of angiogenic factors produced by angiogenic Langerhans islets can be reduced by CD44v6 specific inhibitors. HUVEC cells were mixed with CD44v6 antibody, CD44v6 peptide or control peptide and then suspended in a collagen gel. Hyperplastic angiogenic Langerhans islets isolated from the pancreas of 8-9 week old RIP1Tag2 mice were placed on top of the HUVEC/collagen mixture and overlaid with medium. Every third day new antibody or peptide was added and pictures were taken after 5 to 7 days. The number of islets that induced an angiogenic response of the ECs is given as percentage of all analysed islets. For quantification 60 islets per condition were analysed. Both the CD44v6 antibody and the CD44v6 peptide (human v6 14mer) reduced the angiogenic response, and the reduction obtained with the antibody is significant (p<0.05).\nLangerhans islets are able to stimulate an angiogenic response when co-cultured with HUVEC cells in a collagen matrix. Such angiogenic hyperplastic islets of Langerhans were isolated by collagenase perfusion. They produce a mixture of angiogenic factors and thereby attract the ECs to get organised in capillary like structures. […] In agreement with published data around 60% of islets stimulated an angiogenic response in the control experiment (FIG. 20)."}, "4T1 cells": {"tested_on": "4T1 cells", "test": "Syngeneic orthotopic 4T1 mammary carcinoma model in BALB/c mice", "format": "in vivo", "protocol": "FIG. 26: Treatment with the v6 14mer reduces growth of the primary tumor and macroscopic metastases formation in the lung. 1×10^6 murine 4T1 cells per mouse were diluted in 50 μl RPMI plus 50 μl Matrigel and injected into the 6th mammary fat pad of 10 female BALB/c mice. One week after the injection, the mice were either injected intraperitoneally with 20 μg of the murine v6 14mer dissolved in 100 μl PBS or with 20 μg of control peptide (rat v6 14mer) dissolved in 100 μl PBS. The injection was performed 3 times per week for two weeks. After 2 weeks the mice were sacrificed and the primary tumors and the lungs were extracted. A: Overall reduction of the tumor volume in the v6 peptide treated group. B: Immunofluorescent staining for the endothelial marker CD34 to monitor vascularization of the primary tumor. Graphic representation of the reduction of the total vessel area. C: The v6 peptides led to a reduction in macroscopic lung metastasis. The black arrows mark examples for metastases. The scale bar corresponds to a size of 1 cm. Statistical evaluation of the average number of lung metastases. Significance was calculated using Student's t test: p*<0.01; **p<0.005. Each group consisted of 5 animals.\nThe effect of the CD44v6 14mer was tested in a syngeneic mouse model by orthotopic injection of the murine mammary carcinoma cells 4T1. 4T1 cells were originally derived from a spontaneously arising BALB/c mammary tumor. When introduced orthotopically, 4T1 cells grow rapidly at the primary site and form metastases in the lung and the lymph nodes within a period of 3-6 weeks. The tumor growth and metastatic spreading of 4T1 cells in BALB/c mice very closely mimics human breast cancer stage IV.\nThe 4T1 cells were injected orthotopically into the 6th mammary fat pad. Two groups of 5 animals each with the implanted tumor cells were then used for the experiment. One group was treated with the v6 14mer peptide, one with a control (rat) peptide. The injection of the peptide was performed 3 times per week and planned for three to four weeks but had to be stopped after two weeks as the control group suffered from large tumors."}, "[1]": {"conditions": "murine v6 14mer 20 μg i.p. 3 times per week for two weeks"}}}
{"sequence": "KEQWFGNRWHEGYR [human 14mer, human CD44v6 14mer peptide]", "values": [{"measurement": "VEGFR-2 activation and downstream signaling to Erk induced by VEGF-A165", "setting": "VEGFR-2", "value": "blocked VEGFR-2 activation and downstream signaling to Erk"}, {"measurement": "angiogenic response of the ECs", "setting": "HUVEC", "value": "reduced"}, {"measurement": "macroscopic lung metastases per animal", "setting": "4T1 cells; 20 μg i.p. 3 times per week for two weeks, 5 animals per group", "value": "three animals showed no macroscopic metastases at all, whereas two animals had only one metastase"}, {"measurement": "primary tumor size", "setting": "4T1 cells; [1]", "value": "significant decrease of tumor size"}, {"measurement": "total number of blood vessels (anti-CD34 staining)", "setting": "4T1 cells; [1]", "value": "significantly reduced"}]}
